Experimental data published in patent EP0076669A1, “Novel 3-phenyl-1-indanamines, pharmaceutical compositions and methods of preparation” (KEFALAS A/S, priority 1981, dated 1983).
Where a name gives a salt, the structure may show the parent alone. Read-outs that look alike come from different tables or passages of the source.

What was measured:
potentiation of 5-HTP = experiment: 5-HTP potentiation (5-HTP syndrome); type: in vivo; conditions: Mus musculus, ip, 0.5 h; i.p., mice; 5-HTP 100 mg/kg i.v. 30 min after test substance; read-out: 5-HTP potentation,ED50
Procedure: The test substance is given i.p. or p.o. in the doses 10, 10, 2.5, 0.63 and 0 mg/kg. Three mice are used for each dose level. One of the groups on the highest dose is used as control of the compounds own effect. […] Thirty minutes after administration of test substance, 5-HTP, 100 mg/kg i.v. is given (injection time 5-10 sec.). After this 5-HTP dose the animals remain unaffected. If the animals have been pretreated with a substance, which inhibits the re-uptake of 5-HT, a 5-HTP syndrome will occur. This is characterized by the following symptoms: 1) excitation, 2) tremor, and 3) abduction of the hind limbs.
After the administration of 5-HTP the animals are observed for 15 minutes and each animal is given one point for each symptom present. Thus, the maximal score for a group consisting of 3 mice is 9.
The results are stated as fractions: 0/9, 1/9, 2/9 ..... 8/9, 9/9, where 0, 1, 2 ..... 8, 9 are the number of points per group after the dose in question.

[1] = molecular target: T1, ^3H-DA uptake in striatal synaptosomes (Rattus norvegicus, UniProt P23977); experiment: biochemical; type: biochemical, Rats
T1 construct: the two corpura striata are dissected out and gently homogenized; from tissue; host or cells: rat corpus striatum, synaptosomal P2 fraction
Procedure: ^3H-DA uptake in striatal synaptosomes in vitro.
(§1) 0.32 M sucrose containing 1 mM Nialamide
Krebs-Ringer-phosphate buffer, pH 7.4
3,4-dihydroxyphenylethylamine [ethyl-1-^3H(N)] = ^3H-DA, spc. act. app. 15 Ci/mmol, New England Nuclear
(§2) Thomas Tissue Grinder, clearance 0.004-0.006 inch.
Rats are killed by a blow to their head, exsanguinated and their brains removed. The brain is placed on a precooled glassplate, and the two corpura striata are dissected out and gently homogenized in 40 volumes of ice cold 0.32 M sucrose containing 1 mM of nialamide using a hand homogenizer with teflon pestle. The P2-fraction (synaptosomal fraction) is obtained by centrifugation (600 g, 10 min., 25000 g, 55 min. 4 °C) and suspended in 40 volumes of a modified Krebs-Ringer-phosphate buffer, pH 7.4. To 200µl of the synaptosomal fraction on ice are added 3700 µl modified Krebs-Ringer-phosphate buffer - containing test compounds. After a preincubation at 37°C for 5 min. […] The incubation is terminated by filtering the samples under vacuum through Millipore filters with a wash of 5 ml buffer containing 10 µM of unlabelled DA. After solubilizing the filters in 1 ml of cellosolve the radioactivity is determined by liquid scintillation counting after the addition of 10 ml of Insta-Gel. The unspecific binding of ^3H-DA is determined by incubating control samples on ice instead of at 37 °C.
All experiments are performed in ttriplicate.
The mean of all control samples and ice samples are calculated.

[2] = tested on: tetrabenazine induced ptosis; experiment: Tetrabenazine ptosis antagonism; type: in vivo; conditions: Mus musculus, ip, 0.5 h; i.p., mice; tetrabenazine 40 mg/kg i.p. 30 min after test substance
Procedure: For insoluble substances the doses 0, 1/8, 1/32 and 1/128 of "i.^p. LD50" are used. 3 mice are used for each dose level. Thirty minutes after administration of test substance, tetrabenazine, 40 mg/kg, is injected i.p. Ptosis is evaluated 30 minutes after administration of tetrabenazine, the following rating scale being used: 0 = normal eyes, 1=1/4 closed eyes, 2 = 1/2 closed eyes, 3 = 3/4 closed eyes and 4 = completely closed eyes. Ptosis is evaluated 30 seconds after tilting the cage 3 times. The tilting is carried out in such a way that the animals slide along the floor of the cage.
The results are recorded as % inhibition of ptotic score calculated on the basis of the score of the control group. If ptotic score for the control group is < 10 the test is rejected and another is performed. The registration can also be done as an on line procedure.

[3] = molecular target: T2, ^3H-5-HT uptake in synaptosomes (Rattus norvegicus, UniProt P31652); experiment: Inhibition of 3H-5-HT uptake in synaptosomes in vitro; type: biochemical, Rats; conditions: rat brain synaptosomes, 3H-5-HT 10 nM; read-out: Uptake Inhibition IC50 5-HT
T2 construct: Rest of the brain is gently homogenized (glass teflon homogenizer); from tissue; host or cells: rat brain without cerebellum, pons and medulla oblongata, synaptosomal P2 fraction
Procedure: Inhibition of ^3H-5-HT uptake in synaptosomes in vitro.
as §1
Krebs-Ringer-Phosphate buffer, pH 7.4
Millipore filters (HAWPO 2500, 0.45 µ)
5-hydroxy [G-^3H] tryptamine creatinine sulphate = ^3H-5-HT, spc. act. app. 10 Ci/mmol, The Radiochemical Centre, Amersham.
as §2
Rats are killed by a blow on the head and exsanguinated. The brain is quickly removed, rinsed for blood and placed on a cold plate. The cerebellum, pons and medulla oblongata are removed. Rest of the brain is gently homogenized (glass teflon homogenizer) in 40 volumes of ice cold 0.32 M of sucrose containing 1 mM of nialamide. The P2 fraction (synaptosomal fraction) is obtained by centrifugation (600 g, 10 min. and 25000 g, 55 min., 4°C) and suspended in 40 volumes of a modified Krebs-Ringer-Phosphate buffer, pH 7.4.
To 200µl of the synaptosomal suspension on ice are added 3700 µl modified Krebs-Ringer-phosphate buffer, pH 7.4, containing test substances. After preincubation at 37°C for 5 min., 100 µl of ^3H-5-HT (final concentration in the samples = 10 nM) are added and the samples are incubated for 10 min. at 37 °C. The incubation is terminated by filtering the samples under vacuum through Millipore filters with a wash of 5 ml buffer containing 10 µM of unlabelled 5-HT. After solubilizing the filters in I ml of cellosolve, 10 ml of Instagel are added, and the radioactivity is determined by liquid and scintillation counting. The unspecific binding and passive transport of ^3H-5-HT is determined by incubating control samples on ice instead of at 37°C. All experiments are performed in triplicate. The mean of all control samples are calculated.
The IC50- values are determined as the concentrations, at which the uptake are 50 per cent of the uptake in control sample -uptake in ice samples.

[4] = rat striatal synaptosomes, 3H-DA 12.5 nM, read-out: Uptake Inhibition IC50 DA
[5] = read-out: Uptake Inhibition IC50 DA

T2 sequence (P31652 whole entry): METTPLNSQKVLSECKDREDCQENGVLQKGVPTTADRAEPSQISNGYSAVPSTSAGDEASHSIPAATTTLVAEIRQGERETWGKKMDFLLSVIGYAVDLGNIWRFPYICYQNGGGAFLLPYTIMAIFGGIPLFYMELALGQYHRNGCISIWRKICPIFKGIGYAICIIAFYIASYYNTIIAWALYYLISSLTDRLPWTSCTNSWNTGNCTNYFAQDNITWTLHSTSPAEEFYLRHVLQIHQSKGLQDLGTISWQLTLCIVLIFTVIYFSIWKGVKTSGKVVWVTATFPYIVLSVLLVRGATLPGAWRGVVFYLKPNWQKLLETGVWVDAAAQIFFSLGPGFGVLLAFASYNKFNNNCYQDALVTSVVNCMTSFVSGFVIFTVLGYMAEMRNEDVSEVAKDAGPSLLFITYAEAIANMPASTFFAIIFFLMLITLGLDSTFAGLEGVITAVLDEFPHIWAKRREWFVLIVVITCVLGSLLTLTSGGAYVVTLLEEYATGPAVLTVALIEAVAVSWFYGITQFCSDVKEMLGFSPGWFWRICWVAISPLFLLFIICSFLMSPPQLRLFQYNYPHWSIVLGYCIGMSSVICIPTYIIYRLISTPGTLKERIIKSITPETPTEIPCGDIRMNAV
T1 sequence (P23977 whole entry): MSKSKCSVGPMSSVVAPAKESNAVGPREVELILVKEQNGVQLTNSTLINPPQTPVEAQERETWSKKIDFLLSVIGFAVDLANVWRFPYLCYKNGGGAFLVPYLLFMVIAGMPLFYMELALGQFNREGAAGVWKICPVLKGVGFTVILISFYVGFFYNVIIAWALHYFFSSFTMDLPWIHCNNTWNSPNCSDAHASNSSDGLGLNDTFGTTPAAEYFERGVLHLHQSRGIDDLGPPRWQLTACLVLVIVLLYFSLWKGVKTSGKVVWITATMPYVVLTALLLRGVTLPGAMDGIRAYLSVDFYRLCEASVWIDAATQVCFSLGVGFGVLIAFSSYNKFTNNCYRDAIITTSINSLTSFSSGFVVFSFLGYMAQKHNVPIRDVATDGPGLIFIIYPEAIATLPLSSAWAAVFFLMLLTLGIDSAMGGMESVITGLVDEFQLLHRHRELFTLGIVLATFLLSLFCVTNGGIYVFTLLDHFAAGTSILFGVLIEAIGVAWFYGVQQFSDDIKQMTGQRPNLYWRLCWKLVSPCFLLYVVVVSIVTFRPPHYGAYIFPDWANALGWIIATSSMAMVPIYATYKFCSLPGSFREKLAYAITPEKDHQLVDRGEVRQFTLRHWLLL

Compound | ED50 (potentiation of 5-HTP) | IC50 [1, 4] | ED50 [2] | IC50 [3] | IC50 [1] | IC50 [1, 5]
Cc1ccc2c(c1)[C@H](N(C)C)C[C@H]2c1ccc(F)cc1 (relative stereo) [Lu 18-125-c] | 44 µmol/kg | 100 nM | 41 µmol/kg | 9.8 nM |  | 
CCN(CC)[C@@H]1C[C@@H](c2ccc(F)cc2)c2ccc(F)cc21 (relative stereo) [Lu 18-149-c] |  | 68 nM | 52 µmol/kg | 140 nM |  | 
CCN(CC)[C@@H]1C[C@@H](c2ccc(F)cc2)c2ccc(C)cc21 (relative stereo) [Lu 18-200-c] |  | 210 nM | 63 µmol/kg |  |  | 
CSc1ccc2c(c1)[C@H](N(C)C)C[C@H]2c1ccc(F)cc1 (relative stereo) [Lu 19-016-c] | 39 µmol/kg | 170 nM | 35 µmol/kg | 4.5 nM |  | 
CN(C)[C@@H]1C[C@@H](c2ccc(N)cc2)c2ccc(F)cc21 (relative stereo) [Lu 19-021] | 15 µmol/kg | 190 nM | 9 µmol/kg | 330 nM |  | 
CN(C)[C@@H]1C[C@H](c2ccc(Cl)c(Cl)c2)c2ccc(F)cc21 (relative stereo) [Lu 19-144-c] | 29 µmol/kg |  | > 111 µmol/kg |  |  | 
CN[C@@H]1C[C@@H](c2ccc(Cl)c(Cl)c2)c2ccc(OC)cc21 (relative stereo) [Lu 20-015-o] | 14 µmol/kg |  | 7 µmol/kg |  |  | 
CN[C@@H]1C[C@H](c2ccc(Cl)c(Cl)c2)c2ccc(OC)cc21 (relative stereo) [Lu 20-016-o] | 3 µmol/kg |  | 14 µmol/kg |  |  | 
CN[C@@H]1C[C@H](c2ccc(Cl)c(Cl)c2)c2ccc(O)cc21 (relative stereo) [Lu 20-030] | 59 µmol/kg |  | 15 µmol/kg |  |  | 
CN(C)[C@@H]1C[C@@H](c2ccc(Cl)c(Cl)c2)c2ccc(O)cc21 (relative stereo) [Lu 20-031-b, trans N,N-dimethyl-3-(3,4-dichlorophenyl)-6-hydroxy-1-indanamine, hydrobromide] | 18 µmol/kg |  | 97 µmol/kg |  |  | 
COc1ccc2c(c1)[C@H](N(C)C)C[C@H]2c1ccc(Cl)c(Cl)c1 (relative stereo) [Lu 20-049-o] | 37 µmol/kg |  | 5.9 µmol/kg |  |  | 
CN(C)CCC=C1c2ccccc2CCc2ccccc21 [Amitrip-tyline, amitriptyline, reference compound] |  |  | 7 µmol/kg |  | 5400 nM | 
CN(C)CCCC1(c2ccc(F)cc2)OCc2cc(C#N)ccc21 (stereo not shown) [Citalo-pram, reference compound] | 3.3 µmol/kg |  | 20 µmol/kg |  |  | 
CNC1CC(c2ccc(F)cc2)c2ccc(F)cc21 (stereo not shown) [Lu 13-164-o] | 57 µmol/kg |  | 22 µmol/kg |  |  | 
Cc1ccc2c(c1)C(N(C)C)CC2c1ccc(F)cc1 (stereo not shown) [Lu 18-119] | > 37 µmol/kg | 71 nM | 45 µmol/kg | 1.4 nM |  | 
CN(C)C1CC(c2ccc(Cl)c(Cl)c2)c2ccccc21 (stereo not shown) [Lu 18-122-c] | 10 µmol/kg | 27 nM | 14 µmol/kg | 0.37 nM |  | 
CN(C)C1CC(c2ccc(Cl)cc2Cl)c2ccccc21 (stereo not shown) [Lu 18-137-c] | 19 µmol/kg | 860 nM | 23 µmol/kg | 0.03 nM |  | 
CN(C)C1CC(c2ccc(F)cc2)c2ccc(F)cc21 (stereo not shown) [Lu 18-147] | 21 µmol/kg | 440 nM | > 147 µmol/kg | 1.2 nM |  | 

Compound | ED50 (potentiation of 5-HTP) | IC50 [1, 4] | ED50 [2] | IC50 [3] | IC50 [1] | IC50 [1, 5]
CCN(CC)C1CC(c2ccc(F)cc2)c2ccc(F)cc21 (stereo not shown) [Lu 18-148-c] |  | 1600 nM | > 118 µmol/kg | 440 nM |  | 
CN(C)C1CC(c2ccc(F)cc2)c2ccc(C(F)(F)F)cc21 (stereo not shown) [Lu 18-150-c] | 101 µmol/kg | 340 nM | > 111 µmol/kg | 4.3 nM |  | 
CCN(CC)C1CC(c2ccc(Cl)c(Cl)c2)c2ccccc21 (stereo not shown) [Lu 18-188-c] |  |  | > 108 µmol/kg | 13 nM |  | 120 nM
CN(C)C1CC(c2ccc(F)cc2)c2ccccc21 (stereo not shown) [Lu 19-008-c] | 25 µmol/kg | 250 nM | > 137 µmol/kg |  |  | 
CSc1ccc2c(c1)C(N(C)C)CC2c1ccc(F)cc1 (stereo not shown) [Lu 19-017-c] | 23 µmol/kg | 150 nM | 27 µmol/kg | < 1 nM |  | 
CN(C)C1CC(c2ccc(N)cc2)c2ccc(F)cc21 (stereo not shown) [Lu 19-022-c] | 14 µmol/kg | 170 nM | 19 µmol/kg |  |  | 
CN(C)C1CC(c2ccccc2)c2ccccc21 (stereo not shown) [Lu 19-025-c, reference compound] | > 36 µmol/kg |  | > 143 µmol/kg | 9.5 nM |  | 340 nM
NC1CC(c2ccc(Cl)c(Cl)c2)c2ccccc21 (stereo not shown) [Lu 19-030-o] | > 27 µmol/kg | 7.4 nM | 16 µmol/kg | 15 nM |  | 
CCNC1CC(c2ccc(Cl)c(Cl)c2)c2ccccc21 (stereo not shown) [Lu 19-041-c] | 24 µmol/kg | 62 nM | > 117 µmol/kg |  |  | 
Clc1ccc(C2CC(NCc3ccccc3)c3ccccc32)cc1Cl (stereo not shown) [Lu 19-072-c] | > 99 µmol/kg |  | > 99 µmol/kg |  |  | 
OCCNC1CC(c2ccc(Cl)c(Cl)c2)c2ccccc21 (stereo not shown) [Lu 19-073-c] | > 111 µmol/kg |  | > 111 µmol/kg |  |  | 
Clc1ccc(C2CC(NCCc3ccccc3)c3ccccc32)cc1Cl (stereo not shown) [Lu 19-079-o] | > 85 µmol/kg |  | > 85 µmol/kg |  |  | 
CNC1CC(c2ccc(F)c(Cl)c2)c2ccccc21 (stereo not shown) [Lu 19-086-c] | 30 µmol/kg |  | 32 µmol/kg |  |  | 
CNC1CC(c2ccc(F)cc2)c2ccc(C)cc21 (stereo not shown) [Lu 19-091-c] | 55 µmol/kg |  | > 137 µmol/kg |  |  | 
CN(C)C1CC(c2ccc(F)c(F)c2)c2ccccc21 (stereo not shown) [Lu 19-096-c] | 42 µmol/kg |  | 13 µmol/kg |  |  | 
CN(C)C1CC(O)(c2ccc(F)c(Cl)c2)c2ccccc21 (stereo not shown) [Lu 19-114, N,N-dimethyl-3-(3-chloro-4-fluorophenyl)-3-hydroxy-1-indanamine] | 26 µmol/kg |  | 14 µmol/kg |  |  | 
COc1ccc2c(c1)C(N(C)C)CC2c1ccc(Cl)c(Cl)c1 (stereo not shown) [Lu 20-050] | 26 µmol/kg |  | 119 µmol/kg |  |  | 
CN1Cc2c(N)cccc2C(c2ccccc2)C1 (stereo not shown) [Nomi-phensine, nomiphensine, reference compound] | > 56 µmol/kg |  | 4.3 µmol/kg |  |  | 
